This note sets out measurements from patent US20230277508A1, “USE OF COMPOUND AS CYP2E1 INHIBITOR” (SHANGHAI LING XI BIOTECHNOLOGY DEVELOPMENT CO., LTD., priority 2020, published 2023).

For one data set, the target named is T1, CYP2A6 (Homo sapiens, UniProt P11509).
T1 construct: With a mixed liver microsome of a healthy individual as a research object; from tissue; host or cells: mixed (pooled) human liver microsomes of healthy individuals
Description: Determination of selectivity of a CYP2E1 inhibitor: CYP2A6. Type of data set: biochemical. The note with it: mixed human liver microsome, 2.5 μM coumarin probe; read-out: IC50 for 2A6 inhibition. An excerpt:
(§1) With a mixed liver microsome of a healthy individual as a research object, probe drugs CYP1A2, CYP2A6, CYP2B6, CYP2C8, CYP2C9, CYP2C19, CYP2D6, CYP2E1, and CYP3A4 were selected to determine an in vitro inhibitory effect of an inhibitor to be tested on the metabolism of the probe drugs CYP1A2, CYP2A6, CYP2B6, CYP2C8, CYP2C9, CYP2C19, CYP2D6, CYP2E1, and CYP3A4 for the mixed liver microsome of the healthy human, and the selectivity of the inhibitor to be tested for a CYP2E1 inhibitory effect was evaluated.
(§2) The CYP1A2 probe is 6.25 μM to 800 μM phenacetin or 27.5 μM to 12,520 μM caffeine; • the CYP2A6 probe is 0.156 μM to 20 μM coumarin or 12.5 μM to 2,000 μM nicotine; • the CYP2B6 probe is 7.8 μM to 500 μM bupropion or 0.25 mM to 30 mM cyclophosphamide; • the CYP2C8 probe is 2.5 μM to 80 μM paclitaxel or 0.125 μM to 128 μM amodiaquine; • the CYP2C9 probe is 31.25 μM to 2,000 μM tolbutamide or 0.1 μM to 200 μM diclofenac; • the CYP2C19 probe is 3.9 μM to 500 μM omeprazole or 1.95 μM to 1,000 μM mephenytoin; • the CYP2D6 probe is 0.625 μM to 96 μM dextromethorphan or 0.0195 μM to 80 μM propafenone; and • the CYP3A4 probe is 0.39 μM to 50 μM midazolam or 1.98 μM to 1,000 μM testosterone.
(§3) An incubation system in a total volume of 100 μL was adopted, including a substrate, an inhibitor of different concentrations, a liver microsomal protein, and PBS. […]

A further data set deals with other CYP enzymes. Description: Determination of selectivity of a CYP2E1 inhibitor: other CYP enzymes. The format is biochemical. The settings on record: mixed human liver microsome, probe substrates.
Excerpt: as §1, §2, §3
(In general: Liver microsomes are a subcellular fraction often used to study metabolism.)

The target in a further data set is T2, CYP2E1 (Mus musculus, UniProt Q05421).
T2 construct: from tissue; host or cells: liver microsomes of treated model mice (calcium precipitation)
T2 sequence (Q05421 whole entry): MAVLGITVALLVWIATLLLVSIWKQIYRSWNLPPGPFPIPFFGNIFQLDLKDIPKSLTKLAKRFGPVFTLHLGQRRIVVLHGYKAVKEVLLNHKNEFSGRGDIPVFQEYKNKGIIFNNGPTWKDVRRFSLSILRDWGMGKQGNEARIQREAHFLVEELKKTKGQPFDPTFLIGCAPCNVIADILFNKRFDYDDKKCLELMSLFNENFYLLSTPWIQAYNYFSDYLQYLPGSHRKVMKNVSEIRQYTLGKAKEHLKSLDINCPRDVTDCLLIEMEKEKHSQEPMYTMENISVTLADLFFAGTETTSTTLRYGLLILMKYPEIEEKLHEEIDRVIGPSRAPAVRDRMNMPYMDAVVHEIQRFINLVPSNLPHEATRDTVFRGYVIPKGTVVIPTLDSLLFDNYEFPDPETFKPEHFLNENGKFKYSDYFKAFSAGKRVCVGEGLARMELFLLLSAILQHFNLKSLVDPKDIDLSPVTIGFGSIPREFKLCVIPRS
The data set can be described thus: CYP2E1 activity (CZX metabolism by liver microsome) in LPS-induced mouse pulmonary fibrosis model. The format is in vivo. The note with it: liver microsome of SMI0 high-dose group vs model group, P<0.05. The procedure:
Experimental method: A calcium precipitation method was used to prepare a mouse liver microsome, and a Braford method was used to determine a protein concentration in the microsome. An incubation system was prepared with 2×PBS, a CZX solution, and the liver microsome at a final concentration of 0.5 mg/mL, and then pre-incubated at 37° C. for 5 min; NADPH was added to initiate a reaction, and a resulting mixture was incubated at 37° C. for 30 min and then placed on ice to terminate the reaction; and ethyl acetate was added to extract 6-hydroxychlorzoxazone, a resulting mixture was vortexed and centrifuged, and a resulting upper organic phase was collected and blow-dried with nitrogen. A peak area of a CZX metabolite 6-hydroxychlorzoxazone was detected by HPLC under the following conditions: methanol:water=56:44, and detection wavelength: 287 nm. A concentration A C of the metabolite 6-hydroxychlorzoxazone was calculated through substitution into a standard curve; and a reaction rate of conversion of CZX into 6-hydroxychlorzoxazone was calculated according to V(pmol/min/mg)=(ΔC*1000)/(B*T) to evaluate an enzymatic activity of CYP2E1, where B represents a protein concentration of the microsome (mg/mL) and T represents an incubation time (min). A correlation between a CYP2E1 activity and a pulmonary fibrosis severity in mice was analyzed.

The test system of a further data set is A549 lung cancer cells. The data set can be described thus: Direct effect on proliferation of A549 lung cancer cells (CCK8). Type of data set: cell-based. The settings on record: up to 100 μmol/L, 24 h. Here is the method:
Experimental method: Lewis lung cancer cells and A549 lung cancer cells in a logarithmic growth phase each were selected and inoculated into a 96-well plate at a concentration of 1*10^5 cells/mL, then 100 μL of a basic medium including SMI0 at different concentrations (0 μmol/L, 0.16 μmol/L, 0.8 μmol/L, 4 μmol/L, 20 μmol/L, and 100 μmol/L) was added to each well, and 24 h later, 10 μL of a CCK8 reagent was added to each well; and the cells were further cultivated for 2 h, and an absorbance OD value of each well was determined at 450 nm by a microplate reader. 3 replicates were set for each well, and an average was taken. The proliferation activity was calculated based on the OD value.

Another data set deals with M2 microglial cells. The data set can be described thus: Inflammatory factor and lipid metabolism gene levels in co-cultivated glial cells (qPCR). Type of data set: cell-based, mouse. The settings on record: SMI0 50 μmol/L vs M2 microglial cell co-cultivation group. The procedure: Experimental method: 10 1-2 d newborn C57BL/6 WT mice and 6 CYP2E1^−/− mice were taken, primary microglial cells and astrocytes were collected and inoculated into 6-well plates, and 24 h later, culture supernatants were taken and co-cultivated with glioma cells. Experimental groups: control group; M2 model group; high-concentration, medium-concentration, and low-concentration SMI0 (50 μmol/L, 12.5 μmol/L, and 3.1 μmol/L) groups; and CYP2E1 gene-knockout group. 24 h later, supernatants were discarded; and […] and IL-13 each were added at 20 ng/mL to induce the transformation of microglial cells into the M2 type in the M2 model group and the high-concentration, medium-concentration, and low-concentration SMI0 groups, and different concentrations of SMI0 (50 μmol/L, 12.5 μmol/L, and 3.1 μmol/L) were also added in the intervention groups. The proliferation of glioma cells was determined by a CCK8 method, and an apoptosis proportion was determined by an Annexin V-FITC-PI apoptosis staining kit.
Experimental method: Astrocytes in the co-cultivation group were collected, RNA was extracted and reverse-transcribed into cDNA, and the changes of inflammatory factor and cholesterol metabolism-associated genes were detected by qPCR.
Background: In qPCR the cycle at which signal appears reflects the starting amount.

T1 sequence (P11509 whole entry): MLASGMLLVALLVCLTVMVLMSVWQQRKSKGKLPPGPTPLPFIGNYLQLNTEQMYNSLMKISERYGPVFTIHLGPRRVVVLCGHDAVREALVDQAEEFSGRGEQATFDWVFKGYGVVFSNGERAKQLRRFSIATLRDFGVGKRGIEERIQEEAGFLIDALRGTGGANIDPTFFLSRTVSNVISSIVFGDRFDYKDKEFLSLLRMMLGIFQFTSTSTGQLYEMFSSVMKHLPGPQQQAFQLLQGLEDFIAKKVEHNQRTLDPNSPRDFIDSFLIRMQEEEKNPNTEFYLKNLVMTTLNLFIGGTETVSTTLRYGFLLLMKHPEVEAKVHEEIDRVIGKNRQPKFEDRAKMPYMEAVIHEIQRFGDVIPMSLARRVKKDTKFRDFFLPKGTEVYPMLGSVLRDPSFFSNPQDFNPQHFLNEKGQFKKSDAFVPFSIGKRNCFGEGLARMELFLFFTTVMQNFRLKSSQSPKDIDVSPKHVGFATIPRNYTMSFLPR

Turning to `CC(=O)c1scnc1C` [SMI0], at CYP2A6, the IC50 came out at 76.2 µM. For the same compound, the “inhibitory effect for other CYP enzymes” value with other CYP enzymes was “no significant inhibitory effect”. The “reaction rate V of CZX metabolism” value at CYP2E1 was “significantly reduced”. The “effect on the proliferation of A549 lung cancer cells” value with A549 lung cancer cells is listed as “no significant inhibitory effect”. Besides, in the data set on M2 microglial cells, the “level of IL-4” value is reported as “significantly reduced”, the “level of IL-10” value is on record as “significantly reduced”, the “level of IL-13” value is given as “significantly reduced” and the “level of the lipid metabolism-associated gene PPAR-α” value is listed as “significantly increased”.

For orientation: IC50 means the midpoint of a concentration-inhibition curve.
